In US20260193311A1, “METHODS AND COMPOSITIONS FOR STIMULATION OF CHIMERIC ANTIGEN RECEPTOR T CELLS WITH HAPTEN LABELLED CELLS” (Seattle Children's Hospital (dba Seattle Children's …, priority 2018, published 2026):

What was measured:
[1] = test system: CD19+K562 cells (hapten-labeled); test: cytokine release assay of antiFL CAR T cells against hapten-labelled cells; assay type: cell-based; conditions: target cells prepared with 5 μM FL-DHPE
Method: Hapten-labeled cells were prepared. CD19^+K562 cells were incubated either overnight with 5 μM FL-DHPE or for 20 min with an CD19 antibody labeled with FITC. The hapten-labeled cells were incubated with either one of two antiFL CAR T cells (FITC-E2 scFv, or 4M5.3 scFv). […] Hudecek M, et al., (2013) Clin Cancer Res. 19:3153-64, which is incorporated by reference in its entirety.
The levels of cytokines released by the antiFL CAR T cells were determined. […] The levels of released IFN-7, and TNF-α were lower for hapten-labeled cells contacted with the antiFL(4M5.3) CART cell. Also, there was a trend for hapten-labeled cells prepared with FL-DHPE inducing higher levels of cytokine release compared to hapten-labeled cells prepared with an CD19 antibody labeled with FITC.

[2] = test system: CD19+ Raji cells; test: flow cytometry for presence of FL on hapten-labeled cells; assay type: cell-based
Method: Hapten-labeled cells were prepared by either attaching the hapten, fluorescein (FL), to the cells via an integrated phospholipid or via an antibody. CD19+ Raji cells (lymphoma cell line) were incubated either overnight with 5 μM FL-DHPE (FIG. 3B), or for 20 min with an antiCD19 antibody labeled with fluorescein isothiocyanate (FITC). The cells were washed, stained, and analyzed by flow cytometry for the presence of FL. […] The levels of FL were higher for cells treated with FL-DHPE compared to cells treated with the antiCD19 antibody (FIG. 4A). This was consistent with different tethering techniques providing different levels of hapten on the surface of a cell.

## CCCCCCCCCCCCCCCC(=O)OCC(COP(=O)(O)OCCNC(=S)Nc1ccc2c(c1)C(=O)OC21c2ccc(O)cc2Oc2cc(O)ccc21)OC(=O)CCCCCCCCCCCCCCC (stereo not drawn) [FL-DHPE, N-(Fluorescein-5-Thiocarbamoyl)-1,2-Dihexadecanoyl-sn-Glycero-3-Phosphoethanolamine]
[1]
  cytokine release compared to hapten-labeled cells prepared with CD19 antibody labeled with FITC (trend): higher levels
[2]; 5 μM FL-DHPE overnight
  presence of FL, shift compared to untreated control cells: positive shift
[2]; 5 μM FL-DHPE overnight vs antibody 20 min
  levels of FL compared to cells treated with the antiCD19 antibody: higher
